Results published in the kinase profiling compilation of Christmann-Franck et al. (2016).

Columns and labels:
Test in all cases: KINOMEscan competition binding
Conditions in all cases: compound 10.0 µM
[1] = target: TEC (human) (UniProt P42680)
[2] = target: PHKG2 (human) (UniProt P15735)
[3] = target: PRKAA1 (human) (UniProt Q13131)
[4] = target: PAK1 (human) (UniProt Q13153)
[5] = target: HIPK1 (human) (UniProt Q86Z02)
[6] = target: PLK1 (human) (UniProt P53350)
[7] = target: CDK4 CCND3 (human) (UniProt P11802+P30281)
[8] = target: STK11 (human) (UniProt Q15831)
[9] = target: PLK2 (human) (UniProt Q9NYY3)
[10] = target: EPHA7 (human) (UniProt Q15375)
[11] = target: BMPR1B (human) (UniProt O00238)
[12] = target: MAPK7 (human) (UniProt Q13164)
[13] = target: TNIK (human) (UniProt Q9UKE5)
[14] = target: PRKAA2 (human) (UniProt P54646)
[15] = target: DAPK3 (human) (UniProt O43293)
[16] = target: MAP3K10 (human) (UniProt Q02779)
[17] = target: CLK1 (human) (UniProt P49759)
[18] = target: BMPR1A (human) (UniProt P36894)
[19] = target: AXL (human) (UniProt P30530)
[20] = target: ADCK3 (human) (UniProt Q8NI60)
[21] = target: MAP2K5 (human) (UniProt Q13163)
[22] = target: RET (human) (UniProt P07949)
[23] = target: KDR (human) (UniProt P35968)
[24] = target: FGFR4 (human) (UniProt P22455)
[25] = target: MAP3K5 (human) (UniProt Q99683)
[26] = target: TIE1 (human) (UniProt P35590)
[27] = target: PTK6 (human) (UniProt Q13882)
[28] = target: FLT4 (human) (UniProt P35916)
[29] = tested on: CPK1 (P.falciparum)
[30] = target: BRSK2 (human) (UniProt Q8IWQ3)
[31] = target: MAP4K5 (human) (UniProt Q9Y4K4)
[32] = target: PIK3CG (human) (UniProt P48736)
[33] = target: ZAP70 (human) (UniProt P43403)
[34] = target: MAPK4 (human) (UniProt P31152)
[35] = target: MYLK3 (human) (UniProt Q32MK0)
[36] = target: CDC2L2 (human) (UniProt Q9UQ88)
[37] = target: CDK13 (human) (UniProt Q14004)
[38] = target: CIT (human) (UniProt O14578)

Chain of EPHA7 (human) (Q15375 whole entry, looked up): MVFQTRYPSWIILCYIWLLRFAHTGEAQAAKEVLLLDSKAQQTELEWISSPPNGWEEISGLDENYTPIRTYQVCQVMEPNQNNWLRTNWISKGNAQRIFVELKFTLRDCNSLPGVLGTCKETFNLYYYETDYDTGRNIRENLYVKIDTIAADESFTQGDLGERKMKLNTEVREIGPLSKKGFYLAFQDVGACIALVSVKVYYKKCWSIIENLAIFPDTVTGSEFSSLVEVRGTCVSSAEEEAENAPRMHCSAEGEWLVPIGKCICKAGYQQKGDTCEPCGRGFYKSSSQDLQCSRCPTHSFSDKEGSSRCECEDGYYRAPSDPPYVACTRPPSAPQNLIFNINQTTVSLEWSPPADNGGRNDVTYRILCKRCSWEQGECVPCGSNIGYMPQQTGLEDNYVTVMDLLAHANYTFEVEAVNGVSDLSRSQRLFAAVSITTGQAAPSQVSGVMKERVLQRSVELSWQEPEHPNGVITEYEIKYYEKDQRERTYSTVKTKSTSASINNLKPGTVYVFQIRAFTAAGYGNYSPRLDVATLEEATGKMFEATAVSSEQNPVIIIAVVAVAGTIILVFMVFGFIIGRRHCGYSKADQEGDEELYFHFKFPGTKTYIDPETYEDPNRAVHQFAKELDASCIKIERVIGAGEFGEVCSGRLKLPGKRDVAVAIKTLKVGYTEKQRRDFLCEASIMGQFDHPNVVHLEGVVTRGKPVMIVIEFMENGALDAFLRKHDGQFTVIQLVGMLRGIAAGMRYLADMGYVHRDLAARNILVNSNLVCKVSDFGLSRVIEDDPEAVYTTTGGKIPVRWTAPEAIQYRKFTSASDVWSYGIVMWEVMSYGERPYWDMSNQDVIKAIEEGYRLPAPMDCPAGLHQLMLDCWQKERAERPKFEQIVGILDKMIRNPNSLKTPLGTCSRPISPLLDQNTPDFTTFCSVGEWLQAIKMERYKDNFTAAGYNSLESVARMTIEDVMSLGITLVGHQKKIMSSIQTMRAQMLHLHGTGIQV
Chain of PRKAA1 (human) (Q13131 whole entry, looked up): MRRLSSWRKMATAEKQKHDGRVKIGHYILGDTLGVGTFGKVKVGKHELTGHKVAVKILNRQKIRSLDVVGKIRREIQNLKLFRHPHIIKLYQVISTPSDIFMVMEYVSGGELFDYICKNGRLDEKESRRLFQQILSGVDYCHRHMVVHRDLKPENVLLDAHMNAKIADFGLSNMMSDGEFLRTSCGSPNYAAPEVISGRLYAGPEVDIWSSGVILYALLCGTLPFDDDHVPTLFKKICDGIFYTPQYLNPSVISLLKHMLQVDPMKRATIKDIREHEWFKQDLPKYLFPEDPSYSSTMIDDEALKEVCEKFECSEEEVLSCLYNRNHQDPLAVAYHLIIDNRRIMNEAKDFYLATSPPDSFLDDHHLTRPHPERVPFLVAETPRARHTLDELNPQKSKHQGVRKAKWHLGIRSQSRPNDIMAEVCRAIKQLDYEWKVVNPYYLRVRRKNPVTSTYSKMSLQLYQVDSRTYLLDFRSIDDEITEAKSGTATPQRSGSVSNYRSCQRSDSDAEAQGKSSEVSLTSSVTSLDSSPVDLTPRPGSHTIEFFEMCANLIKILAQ
Chain of MAPK4 (human) (P31152 whole entry, looked up): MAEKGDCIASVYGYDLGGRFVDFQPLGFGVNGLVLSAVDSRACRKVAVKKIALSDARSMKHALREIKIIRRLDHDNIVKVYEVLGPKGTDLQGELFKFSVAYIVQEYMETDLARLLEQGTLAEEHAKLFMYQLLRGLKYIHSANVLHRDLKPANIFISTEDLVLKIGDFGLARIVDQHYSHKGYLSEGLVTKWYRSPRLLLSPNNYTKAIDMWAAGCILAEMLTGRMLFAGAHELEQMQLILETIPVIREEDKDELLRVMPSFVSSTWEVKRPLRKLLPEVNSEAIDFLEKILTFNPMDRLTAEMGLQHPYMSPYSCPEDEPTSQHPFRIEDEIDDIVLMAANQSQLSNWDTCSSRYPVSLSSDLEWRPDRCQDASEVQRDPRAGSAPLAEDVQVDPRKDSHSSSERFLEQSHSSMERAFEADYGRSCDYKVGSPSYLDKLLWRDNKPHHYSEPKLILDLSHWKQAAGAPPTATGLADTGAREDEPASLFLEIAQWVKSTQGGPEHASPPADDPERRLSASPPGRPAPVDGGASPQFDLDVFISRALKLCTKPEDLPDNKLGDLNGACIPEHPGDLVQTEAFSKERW
Chain of PLK2 (human) (Q9NYY3 whole entry, looked up): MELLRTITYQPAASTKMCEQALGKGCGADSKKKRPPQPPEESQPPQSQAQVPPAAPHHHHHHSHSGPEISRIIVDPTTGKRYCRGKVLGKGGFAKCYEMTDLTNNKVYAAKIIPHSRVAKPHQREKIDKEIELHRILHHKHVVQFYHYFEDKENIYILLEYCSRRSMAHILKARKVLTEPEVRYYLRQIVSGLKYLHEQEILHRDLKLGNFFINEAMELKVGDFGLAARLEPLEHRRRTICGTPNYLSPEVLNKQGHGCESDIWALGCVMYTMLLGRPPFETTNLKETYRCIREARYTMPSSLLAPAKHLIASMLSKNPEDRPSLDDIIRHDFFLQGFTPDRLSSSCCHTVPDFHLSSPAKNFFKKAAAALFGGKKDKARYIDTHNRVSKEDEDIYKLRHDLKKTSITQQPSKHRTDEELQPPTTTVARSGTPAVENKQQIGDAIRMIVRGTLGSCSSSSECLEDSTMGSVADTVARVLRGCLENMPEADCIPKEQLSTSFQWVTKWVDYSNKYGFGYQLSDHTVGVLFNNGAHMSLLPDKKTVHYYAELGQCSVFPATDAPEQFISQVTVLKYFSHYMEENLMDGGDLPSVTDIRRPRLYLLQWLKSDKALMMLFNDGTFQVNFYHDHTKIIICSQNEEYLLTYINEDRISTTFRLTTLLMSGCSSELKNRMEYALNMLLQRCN
Chain of MAPK7 (human) (Q13164 whole entry, looked up): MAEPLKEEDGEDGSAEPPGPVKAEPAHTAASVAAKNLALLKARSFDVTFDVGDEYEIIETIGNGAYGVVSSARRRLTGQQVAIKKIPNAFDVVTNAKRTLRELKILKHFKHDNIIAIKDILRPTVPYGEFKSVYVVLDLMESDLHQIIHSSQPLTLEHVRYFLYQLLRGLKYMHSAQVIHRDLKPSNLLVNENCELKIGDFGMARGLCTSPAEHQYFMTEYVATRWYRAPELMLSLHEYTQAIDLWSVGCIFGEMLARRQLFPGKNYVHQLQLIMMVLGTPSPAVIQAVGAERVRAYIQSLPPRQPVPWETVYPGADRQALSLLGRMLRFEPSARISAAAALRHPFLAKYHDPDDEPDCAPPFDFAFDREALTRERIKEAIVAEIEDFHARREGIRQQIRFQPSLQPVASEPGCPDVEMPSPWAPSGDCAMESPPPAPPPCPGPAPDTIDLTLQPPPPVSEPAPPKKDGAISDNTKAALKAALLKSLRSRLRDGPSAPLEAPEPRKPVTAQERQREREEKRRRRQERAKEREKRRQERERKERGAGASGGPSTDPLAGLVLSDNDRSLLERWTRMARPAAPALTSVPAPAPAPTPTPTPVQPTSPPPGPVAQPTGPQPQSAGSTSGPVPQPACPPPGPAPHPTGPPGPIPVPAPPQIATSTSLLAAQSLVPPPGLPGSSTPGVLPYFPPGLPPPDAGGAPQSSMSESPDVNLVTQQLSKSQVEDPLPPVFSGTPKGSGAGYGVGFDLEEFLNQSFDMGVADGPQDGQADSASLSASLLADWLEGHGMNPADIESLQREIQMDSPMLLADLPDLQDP
Chain of PRKAA2 (human) (P54646 whole entry, looked up): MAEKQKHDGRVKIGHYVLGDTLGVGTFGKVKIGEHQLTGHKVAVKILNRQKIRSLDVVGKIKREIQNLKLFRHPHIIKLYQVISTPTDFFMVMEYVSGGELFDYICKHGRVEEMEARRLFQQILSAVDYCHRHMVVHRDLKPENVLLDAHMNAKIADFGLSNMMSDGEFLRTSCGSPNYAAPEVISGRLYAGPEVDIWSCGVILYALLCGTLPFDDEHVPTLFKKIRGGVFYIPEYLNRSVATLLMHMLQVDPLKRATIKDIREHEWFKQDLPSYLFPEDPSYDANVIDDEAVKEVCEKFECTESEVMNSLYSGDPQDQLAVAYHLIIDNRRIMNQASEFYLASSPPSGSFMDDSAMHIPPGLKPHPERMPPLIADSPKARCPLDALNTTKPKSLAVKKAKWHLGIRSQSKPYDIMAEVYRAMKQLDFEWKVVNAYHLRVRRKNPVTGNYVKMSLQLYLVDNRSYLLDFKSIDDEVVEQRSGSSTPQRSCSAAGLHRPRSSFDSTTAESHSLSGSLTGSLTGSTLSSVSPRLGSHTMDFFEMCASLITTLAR
Chain of CDK4 CCND3 (human) (P11802 whole entry, looked up): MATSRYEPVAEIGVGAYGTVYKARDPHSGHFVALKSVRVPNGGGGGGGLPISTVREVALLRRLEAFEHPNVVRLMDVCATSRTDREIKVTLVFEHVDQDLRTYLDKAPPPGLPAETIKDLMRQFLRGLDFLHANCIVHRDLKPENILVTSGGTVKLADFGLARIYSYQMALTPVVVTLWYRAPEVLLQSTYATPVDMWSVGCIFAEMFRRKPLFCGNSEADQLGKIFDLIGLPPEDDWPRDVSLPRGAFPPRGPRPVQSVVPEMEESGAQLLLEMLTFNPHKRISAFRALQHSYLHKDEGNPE
Chain of CDK4 CCND3 (human) (P30281 whole entry, looked up): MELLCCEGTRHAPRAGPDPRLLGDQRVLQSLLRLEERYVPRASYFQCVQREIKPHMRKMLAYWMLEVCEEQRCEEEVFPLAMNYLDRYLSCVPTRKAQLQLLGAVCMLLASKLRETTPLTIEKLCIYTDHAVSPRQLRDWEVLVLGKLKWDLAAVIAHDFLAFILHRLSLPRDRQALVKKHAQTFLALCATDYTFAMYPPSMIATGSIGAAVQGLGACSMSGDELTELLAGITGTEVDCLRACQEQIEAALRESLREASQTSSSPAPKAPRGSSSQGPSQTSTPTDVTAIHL

Row | Structure (SMILES) | kinase still bound, per cent of control [1] | kinase still bound, per cent of control [2] | kinase still bound, per cent of control [3] | kinase still bound, per cent of control [4] | kinase still bound, per cent of control [5] | kinase still bound, per cent of control [6] | kinase still bound, per cent of control [7] | kinase still bound, per cent of control [8] | kinase still bound, per cent of control [9] | kinase still bound, per cent of control [10] | kinase still bound, per cent of control [11] | kinase still bound, per cent of control [12] | kinase still bound, per cent of control [13] | kinase still bound, per cent of control [14] | kinase still bound, per cent of control [15] | kinase still bound, per cent of control [16] | kinase still bound, per cent of control [17] | kinase still bound, per cent of control [18] | kinase still bound, per cent of control [19] | kinase still bound, per cent of control [20] | further results
1 | COc1cc2ncn(-c3cc(OCc4ccccc4C(F)(F)F)c(C(N)=O)s3)c2cc1OC | 94% | 100% | 68% | 100% | 84% | 0.1% | 100% | 37% | 0.2% | 79% | 64% | 100% | 32% | 92% | 19% | 98% | 36% | 100% | 65% | 61% | kinase still bound, per cent of control [21]: 0.45%; kinase still bound, per cent of control [22]: 39%; kinase still bound, per cent of control [23]: 76%; kinase still bound, per cent of control [24]: 77%; kinase still bound, per cent of control [25]: 87%; kinase still bound, per cent of control [26]: 31%; kinase still bound, per cent of control [27]: 84%; kinase still bound, per cent of control [28]: 1.4%; kinase still bound, per cent of control [29]: 75%; kinase still bound, per cent of control [30]: 31%; kinase still bound, per cent of control [31]: 3%; kinase still bound, per cent of control [32]: 18%; kinase still bound, per cent of control [33]: 95%; kinase still bound, per cent of control [34]: 100%; kinase still bound, per cent of control [35]: 100%; kinase still bound, per cent of control [36]: 99%; kinase still bound, per cent of control [37]: 76%
2 | CNC(=O)c1cc(Oc2ccc(NC(=O)Nc3ccc(Cl)c(C(F)(F)F)c3)cc2)ccn1 | 100% | 100% | 42% | 62% | 13% | 100% | 79% | 76% | 71% | 25% | 98% | 85% | 27% | 74% | 88% | 73% | 23% | 100% | 7.8% | 100% | kinase still bound, per cent of control [38]: 17%; kinase still bound, per cent of control [21]: 0.3%; kinase still bound, per cent of control [22]: 0.05%; kinase still bound, per cent of control [24]: 65%; kinase still bound, per cent of control [25]: 90%; kinase still bound, per cent of control [27]: 100%; kinase still bound, per cent of control [28]: 0%; kinase still bound, per cent of control [29]: 0.95%; kinase still bound, per cent of control [30]: 85%; kinase still bound, per cent of control [31]: 7.2%; kinase still bound, per cent of control [33]: 100%; kinase still bound, per cent of control [34]: 100%; kinase still bound, per cent of control [36]: 85%; kinase still bound, per cent of control [37]: 86%
